Source: ChEMBL document CHEMBL3232722, “Synthesis and kinase inhibitory activity of new sulfonamide derivatives of pyrazolo[4,3-e][1,2,4]triazines” (Eur J Med Chem, 2014)
pIC50: −log10 of the molar value.

Assays:
[1] = target: Cyclin-dependent kinase 2/cyclin E1 (Homo sapiens, UniProt P24941); assay: Inhibition of CDK2/cyclin E (unknown origin) expressed in Sf9 cells using histone H1 as substrate in presence of [gamma33P]ATP
MDA-MB-231 [2] = assay: In vitro antiproliferative activity against human MDA-MB-231 cells assessed as decrease in cell vaibility after 24 hrs by MTT assay; assay type: functional, cell-based; conditions: for pIC50: MDA-MB-231, 24 h
[3] = target: Casein kinase II subunit alpha (Homo sapiens, UniProt P68400); assay: Inhibition of CK2alpha1 (unknown origin) using casein as substrate in presence of [gamma33P]ATP
Casein kinase II subunit alpha, sequence (P68400 whole entry): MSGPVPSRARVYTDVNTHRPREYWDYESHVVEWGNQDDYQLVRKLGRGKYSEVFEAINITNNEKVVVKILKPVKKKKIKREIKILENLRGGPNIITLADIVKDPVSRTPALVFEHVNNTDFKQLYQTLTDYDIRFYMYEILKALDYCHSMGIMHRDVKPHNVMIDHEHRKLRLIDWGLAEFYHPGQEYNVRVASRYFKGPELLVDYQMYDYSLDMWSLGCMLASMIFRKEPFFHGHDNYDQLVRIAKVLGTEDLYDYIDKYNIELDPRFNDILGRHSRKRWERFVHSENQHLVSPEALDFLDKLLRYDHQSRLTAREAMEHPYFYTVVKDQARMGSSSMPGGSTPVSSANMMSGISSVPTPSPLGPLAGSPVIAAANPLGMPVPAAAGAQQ

[4] = target: T1, Tyrosine-protein kinase ABL1 (Homo sapiens, UniProt P00519); assay: Inhibition of recombinant Abl kinase (unknown origin) expressed in Sf9 cells using GGEAIYAAPFKK as substrate in presence of [gamma33P]ATP
T1 sequence (P00519 whole entry): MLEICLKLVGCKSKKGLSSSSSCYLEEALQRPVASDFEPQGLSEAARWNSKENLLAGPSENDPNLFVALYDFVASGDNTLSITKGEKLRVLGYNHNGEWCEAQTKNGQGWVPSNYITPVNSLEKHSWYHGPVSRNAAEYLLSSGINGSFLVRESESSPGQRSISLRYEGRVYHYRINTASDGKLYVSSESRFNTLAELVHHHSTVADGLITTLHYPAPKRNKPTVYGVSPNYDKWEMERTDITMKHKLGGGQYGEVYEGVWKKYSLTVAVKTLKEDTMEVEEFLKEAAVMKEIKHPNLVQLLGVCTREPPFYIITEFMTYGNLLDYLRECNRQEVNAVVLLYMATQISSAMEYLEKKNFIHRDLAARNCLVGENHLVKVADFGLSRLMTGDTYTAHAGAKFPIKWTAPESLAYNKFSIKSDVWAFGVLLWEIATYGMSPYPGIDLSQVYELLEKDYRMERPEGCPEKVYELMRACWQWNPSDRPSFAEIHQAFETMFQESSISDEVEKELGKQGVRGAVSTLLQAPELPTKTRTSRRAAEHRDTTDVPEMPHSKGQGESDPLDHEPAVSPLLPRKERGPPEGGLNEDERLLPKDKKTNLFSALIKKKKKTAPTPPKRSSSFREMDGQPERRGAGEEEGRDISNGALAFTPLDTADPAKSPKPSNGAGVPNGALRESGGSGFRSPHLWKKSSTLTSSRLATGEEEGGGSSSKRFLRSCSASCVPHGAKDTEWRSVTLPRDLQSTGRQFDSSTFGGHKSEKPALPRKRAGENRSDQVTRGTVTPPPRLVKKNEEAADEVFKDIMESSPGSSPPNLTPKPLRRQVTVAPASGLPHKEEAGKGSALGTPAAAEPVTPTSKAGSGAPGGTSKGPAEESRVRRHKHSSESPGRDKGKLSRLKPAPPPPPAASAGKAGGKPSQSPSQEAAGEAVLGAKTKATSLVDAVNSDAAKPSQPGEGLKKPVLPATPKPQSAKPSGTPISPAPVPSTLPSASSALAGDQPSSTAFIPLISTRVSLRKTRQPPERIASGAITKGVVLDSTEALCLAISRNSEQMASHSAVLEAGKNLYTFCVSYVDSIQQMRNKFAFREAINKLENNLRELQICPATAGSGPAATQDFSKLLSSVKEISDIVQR

K562 = assay: In vitro antiproliferative activity against human K562 cells assessed as decrease in cell viability after 24 hrs by MTT assay; assay type: functional, cell-based; conditions: for pIC50: K562, 24 h
HL-60 = assay: In vitro antiproliferative activity against human HL60 cells assessed as decrease in cell viability after 24 hrs by MTT assay; assay type: functional, cell-based; conditions: for pIC50: HL-60, 24 h, read-out: IC50
MCF7 [5] = assay: In vitro antiproliferative activity against human MCF7 cells assessed as decrease cell viability after 24 hrs by MTT assay; assay type: functional, cell-based; conditions: for pIC50: MCF7, 24 h
MDA-MB-231 [6] = assay: Cytostatic activity against human MDA-MB-231 cells assessed as decrease in [3H]thymidine incorporation into DNA after 24 hrs by liquid scintillation counting analysis; assay type: functional, cell-based
CCRF-CEM = assay: In vitro antiproliferative activity against human CCRF-CEM cells assessed as decrease in cell viability after 24 hrs by MTT assay; assay type: functional, cell-based
MCF7 [7] = assay: Cytostatic activity against human MCF7 cells assessed as decrease in [3H]thymidine incorporation into DNA after 24 hrs by liquid scintillation counting analysis; assay type: functional, cell-based
[8] = (§1) In vitro antiproliferative activity against human BV173 cells assessed as decrease in cell viability after 24 hrs by MTT assay; assay type: functional, cell-based; conditions: BV-173, 24 h
BV-173 = assay: as §1; assay type: functional, cell-based
[9] = target: T1, Tyrosine-protein kinase ABL1; assay: Inhibition of recombinant Abl kinase (unknown origin) expressed in Sf9 cells assessed as residual enzyme activity using GGEAIYAAPFKK as substrate at 10 uM in presence of [gamma33P]ATP
[10] = target: T1, Tyrosine-protein kinase ABL1; assay: Inhibition of recombinant Abl kinase (unknown origin) expressed in Sf9 cells assessed as residual enzyme activity using GGEAIYAAPFKK as substrate at 25 uM in presence of [gamma33P]ATP
[11] = target: T1, Tyrosine-protein kinase ABL1; assay: Inhibition of recombinant Abl kinase (unknown origin) expressed in Sf9 cells assessed as residual enzyme activity using GGEAIYAAPFKK as substrate at 50 uM in presence of [gamma33P]ATP

Cc1nn(C)c2nnc(Nc3ccc(S(=O)(=O)NCCN4CCOCC4)cc3)nc12
pIC50 [1]: < 4.30
inhibition (MDA-MB-231 [2]): Dose-dependent effect
pIC50 (MDA-MB-231 [2]): 3.90
pIC50 [3]: < 4.30
pIC50 [4]: 4.70
inhibition (K562): Dose-dependent effect
pIC50 (K562): 4.02
inhibition (HL-60): Dose-dependent effect
pIC50 (HL-60): 4.39
inhibition (MCF7 [5]): Dose-dependent effect
pIC50 (MCF7 [5]): 3.84
pIC50 (MDA-MB-231 [6]): 3.92
inhibition (MDA-MB-231 [6]): Dose-dependent effect
pIC50 (CCRF-CEM): 4.19
inhibition (CCRF-CEM): Dose-dependent effect
pIC50 (MCF7 [7]): 4.00
inhibition (MCF7 [7]): Dose-dependent effect
pIC50 [8]: 4.41
inhibition (BV-173): Dose-dependent effect

Cc1nn(C)c2nnc(Nc3ccc(S(=O)(=O)N4CCCCC4)cc3)nc12
pIC50 [1]: < 4.60
inhibition (MDA-MB-231 [2]): Dose-dependent effect
pIC50 (MDA-MB-231 [2]): 3.85
pIC50 [3]: < 4.60
pIC50 [4]: < 4.60
inhibition (K562): Dose-dependent effect
pIC50 (K562): 4.01
inhibition (HL-60): Dose-dependent effect
pIC50 (HL-60): 4.62
Activity [9]: 100%
inhibition (MCF7 [5]): Dose-dependent effect
pIC50 (MCF7 [5]): 3.70
pIC50 (MDA-MB-231 [6]): 3.87
inhibition (MDA-MB-231 [6]): Dose-dependent effect
pIC50 (CCRF-CEM): 4.52
inhibition (CCRF-CEM): Dose-dependent effect
pIC50 (MCF7 [7]): 3.82
inhibition (MCF7 [7]): Dose-dependent effect
Activity [10]: 98%
pIC50 [8]: 4.44
inhibition (BV-173): Dose-dependent effect

Cc1nn(C)c2nnc(Nc3ccc(S(=O)(=O)N4CCN(C)CC4)cc3)nc12
pIC50 [1]: < 4.30
inhibition (MDA-MB-231 [2]): Dose-dependent effect
pIC50 (MDA-MB-231 [2]): 4.00
pIC50 [3]: < 4.30
pIC50 [4]: < 4.30
inhibition (K562): Dose-dependent effect
pIC50 (K562): 4.18
Activity [11]: 51%
inhibition (HL-60): Dose-dependent effect
pIC50 (HL-60): 4.31
Activity [9]: 60%
inhibition (MCF7 [5]): Dose-dependent effect
pIC50 (MCF7 [5]): 3.99
pIC50 (MDA-MB-231 [6]): 4.10
inhibition (MDA-MB-231 [6]): Dose-dependent effect
pIC50 (CCRF-CEM): 4.44
inhibition (CCRF-CEM): Dose-dependent effect
pIC50 (MCF7 [7]): 4.06
inhibition (MCF7 [7]): Dose-dependent effect
Activity [10]: 55%
pIC50 [8]: 4.40
inhibition (BV-173): Dose-dependent effect

Cc1nn(C)c2nnc(Nc3ccc(S(=O)(=O)N4CCCC4)cc3)nc12
pIC50 [1]: < 4.30
inhibition (MDA-MB-231 [2]): Dose-dependent effect
pIC50 (MDA-MB-231 [2]): < 3.70
pIC50 [3]: < 4.30
pIC50 [4]: < 4.30
inhibition (K562): Dose-dependent effect
pIC50 (K562): 3.99
Activity [11]: 90%
inhibition (HL-60): Dose-dependent effect
pIC50 (HL-60): 4.25
Activity [9]: 100%
inhibition (MCF7 [5]): Dose-dependent effect
pIC50 (MCF7 [5]): < 3.70
pIC50 (MDA-MB-231 [6]): < 3.70
inhibition (MDA-MB-231 [6]): Dose-dependent effect
pIC50 (CCRF-CEM): 4.52
inhibition (CCRF-CEM): Dose-dependent effect
pIC50 (MCF7 [7]): < 3.70
inhibition (MCF7 [7]): Dose-dependent effect
Activity [10]: 100%
pIC50 [8]: 4.33
inhibition (BV-173): Dose-dependent effect

O=C(O)c1ccc2c(c1)nc(Nc1cccc(Cl)c1)c1ccncc12 [SILMITASERTIB]
pIC50 [1]: 5.74

Cc1nn(C)c2nnc(Nc3ccc(S(=O)(=O)NC(CO)C(C)C)cc3)nc12 (configuration not stated)
pIC50 [1]: < 4.30
inhibition (MDA-MB-231 [2]): Dose-dependent effect
pIC50 (MDA-MB-231 [2]): < 3.70
pIC50 [3]: < 4.30
pIC50 [4]: < 4.30
inhibition (K562): Dose-dependent effect
pIC50 (K562): < 3.70
inhibition (HL-60): Dose-dependent effect
pIC50 (HL-60): 4.40
Activity [9]: 80%
inhibition (MCF7 [5]): Dose-dependent effect
pIC50 (MCF7 [5]): < 3.70
pIC50 (MDA-MB-231 [6]): < 3.70
inhibition (MDA-MB-231 [6]): Dose-dependent effect
pIC50 (CCRF-CEM): 4.27
inhibition (CCRF-CEM): Dose-dependent effect
pIC50 (MCF7 [7]): < 3.70
inhibition (MCF7 [7]): Dose-dependent effect
pIC50 [8]: 4.24
inhibition (BV-173): Dose-dependent effect

Cc1nn(C)c2nnc(Nc3ccc(S(=O)(=O)NCCO)cc3)nc12
pIC50 [1]: < 4.30
inhibition (MDA-MB-231 [2]): Dose-dependent effect
pIC50 (MDA-MB-231 [2]): < 3.70
pIC50 [3]: < 4.30
pIC50 [4]: 4.41
inhibition (K562): Dose-dependent effect
pIC50 (K562): 4.00
inhibition (HL-60): Dose-dependent effect
pIC50 (HL-60): 4.38
inhibition (MCF7 [5]): Dose-dependent effect
pIC50 (MCF7 [5]): < 3.70
pIC50 (MDA-MB-231 [6]): < 3.70
inhibition (MDA-MB-231 [6]): Dose-dependent effect
pIC50 (CCRF-CEM): 4.31
inhibition (CCRF-CEM): Dose-dependent effect
pIC50 (MCF7 [7]): < 3.70
inhibition (MCF7 [7]): Dose-dependent effect
pIC50 [8]: 4.39
inhibition (BV-173): Dose-dependent effect

O=C(O)CCCc1ccc(N(CCCl)CCCl)cc1 [CHLORAMBUCIL]
pIC50 (MDA-MB-231 [2]): 4.03
pIC50 (K562): 4.08
pIC50 (HL-60): 4.42
pIC50 (MCF7 [5]): 4.01
pIC50 (MDA-MB-231 [6]): 4.31
pIC50 (CCRF-CEM): 4.68
pIC50 (MCF7 [7]): 4.25
pIC50 [8]: 4.47

Cc1nn(C)c2nnc(Nc3ccc(S(=O)(=O)N4CCOCC4)cc3)nc12
pIC50 [1]: < 4.60
inhibition (MDA-MB-231 [2]): Dose-dependent effect
pIC50 (MDA-MB-231 [2]): < 3.70
pIC50 [3]: < 4.60
pIC50 [4]: < 4.60
inhibition (K562): Dose-dependent effect
pIC50 (K562): 4.05
inhibition (HL-60): Dose-dependent effect
pIC50 (HL-60): 4.41
Activity [9]: 88%
inhibition (MCF7 [5]): Dose-dependent effect
pIC50 (MCF7 [5]): < 3.70
pIC50 (MDA-MB-231 [6]): < 3.70
inhibition (MDA-MB-231 [6]): Dose-dependent effect
pIC50 (CCRF-CEM): 4.16
inhibition (CCRF-CEM): Dose-dependent effect
pIC50 (MCF7 [7]): < 3.70
inhibition (MCF7 [7]): Dose-dependent effect
Activity [10]: 80%
pIC50 [8]: 4.24
inhibition (BV-173): Dose-dependent effect

Cc1nn(C)c2nnc(Nc3ccc(S(=O)(=O)NCC(O)CO)cc3)nc12 (configuration not stated)
pIC50 [1]: < 4.30
inhibition (MDA-MB-231 [2]): Dose-dependent effect
pIC50 (MDA-MB-231 [2]): 3.85
pIC50 [3]: < 4.30
pIC50 [4]: 4.47
inhibition (K562): Dose-dependent effect
pIC50 (K562): 4.00
Activity [11]: 45%
inhibition (HL-60): Dose-dependent effect
pIC50 (HL-60): 4.36
Activity [9]: 81%
inhibition (MCF7 [5]): Dose-dependent effect
pIC50 (MCF7 [5]): 3.70
pIC50 (MDA-MB-231 [6]): 3.89
inhibition (MDA-MB-231 [6]): Dose-dependent effect
pIC50 (CCRF-CEM): 4.24
inhibition (CCRF-CEM): Dose-dependent effect
pIC50 (MCF7 [7]): 3.89
inhibition (MCF7 [7]): Dose-dependent effect
Activity [10]: 56%
pIC50 [8]: 4.38
inhibition (BV-173): Dose-dependent effect

Cc1nn(C)c2nnc(Nc3ccc(S(N)(=O)=O)cc3)nc12
pIC50 [1]: < 4.30
inhibition (MDA-MB-231 [2]): Dose-dependent effect
pIC50 (MDA-MB-231 [2]): < 3.70
pIC50 [3]: < 4.30
pIC50 [4]: 4.48
inhibition (K562): Dose-dependent effect
pIC50 (K562): 3.97
Activity [11]: 33%
inhibition (HL-60): Dose-dependent effect
pIC50 (HL-60): 4.24
Activity [9]: 95%
inhibition (MCF7 [5]): Dose-dependent effect
pIC50 (MCF7 [5]): < 3.70
pIC50 (MDA-MB-231 [6]): < 3.70
inhibition (MDA-MB-231 [6]): Dose-dependent effect
pIC50 (CCRF-CEM): 4.30
inhibition (CCRF-CEM): Dose-dependent effect
pIC50 (MCF7 [7]): < 3.70
inhibition (MCF7 [7]): Dose-dependent effect
Activity [10]: 63%
pIC50 [8]: 4.35
inhibition (BV-173): Dose-dependent effect
